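Values below derive from 48-hour exposures of cells grown in 96-well plates, with endpoints linearly interpolated between the two concentrations bracketing the appropriate inhibition level. TGI is the concentration that stops growth completely.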
Key:
Assay in all cases: growth of human tumour cells (NCI), 48 h
[1] = test system: 786-0 renal
[2] = test system: A498 renal
[3] = test system: A549 NSCLC
[4] = test system: ACHN renal
[5] = test system: BT-549 breast
[6] = test system: CAKI-1 renal
[7] = test system: CCRF-CEM leukemia
[8] = test system: COLO 205 colon
[9] = test system: DU-145 prostate
[10] = test system: EKVX NSCLC
[11] = test system: HCC-2998 colon
[12] = test system: HCT-116 colon
[13] = test system: HCT-15 colon
[14] = test system: HL-60(TB) leukemia
[15] = test system: HOP-62 NSCLC
[16] = test system: HOP-92 NSCLC
[17] = test system: HS 578T breast
[18] = test system: HT29 colon
[19] = test system: IGROV1 ovarian
[20] = test system: K-562 leukemia
[21] = test system: KM12 colon
[22] = test system: LOX IMVI melanoma
[23] = test system: M14 melanoma
[24] = test system: MCF7 breast
[25] = test system: MDA-MB-231 breast
[26] = test system: MDA-MB-435
[27] = test system: MDA-N
[28] = test system: MOLT-4 leukemia
[29] = test system: NCI-H226 lung
[30] = test system: NCI-H23 lung
[31] = test system: NCI-H460 lung
[32] = test system: NCI-H522 lung
[33] = test system: NCI/ADR-RES ovarian
[34] = test system: OVCAR-3 ovarian
[35] = test system: OVCAR-4 ovarian
[36] = test system: OVCAR-5 ovarian
[37] = test system: OVCAR-8 ovarian
[38] = test system: PC-3 prostate
[39] = test system: RPMI-8226 leukemia
[40] = test system: RXF 393 renal
[41] = test system: SF-268 CNS
[42] = test system: SF-295 CNS
[43] = test system: SF-539 CNS
[44] = test system: SK-MEL-2 melanoma
[45] = test system: SK-MEL-28 melanoma
[46] = test system: SK-MEL-5 melanoma
[47] = test system: SK-OV-3 ovarian
[48] = test system: SN12C renal
[49] = test system: SNB-19 CNS
[50] = test system: SNB-75 CNS
[51] = test system: SR leukemia
[52] = test system: SW-620 colon
[53] = test system: T-47D breast
[54] = test system: TK-10 renal
[55] = test system: U251 CNS
[56] = test system: UACC-257 melanoma
[57] = test system: UACC-62 melanoma
[58] = test system: UO-31 renal
[59] = test system: MALME-3M melanoma

CN(O)C(=O)c1ccc(OCc2cccc(Cl)c2)cc1
TGI [1]: 53.1 µM | TGI [2]: > 100 µM | TGI [3]: > 100 µM | TGI [4]: > 68.3 µM | TGI [5]: > 100 µM | TGI [6]: > 92.6 µM | TGI [7]: > 100 µM | TGI [8]: > 100 µM | TGI [9]: 98.2 µM | TGI [10]: > 100 µM | TGI [11]: > 53.3 µM | TGI [12]: > 100 µM | TGI [13]: > 100 µM | TGI [14]: 22.2 µM | TGI [15]: > 100 µM | TGI [16]: > 100 µM | TGI [17]: > 100 µM | TGI [18]: > 100 µM | TGI [19]: > 100 µM | TGI [20]: > 100 µM | TGI [21]: > 100 µM | TGI [22]: > 100 µM | TGI [23]: > 50 µM | TGI [24]: > 100 µM | TGI [25]: > 100 µM | TGI [26]: > 100 µM | TGI [27]: > 100 µM | TGI [28]: > 100 µM | TGI [29]: > 100 µM | TGI [30]: > 100 µM | TGI [31]: > 100 µM | TGI [32]: > 100 µM | TGI [33]: > 89.4 µM | TGI [34]: > 100 µM | TGI [35]: > 100 µM | TGI [36]: > 100 µM | TGI [37]: > 95.9 µM | TGI [38]: > 100 µM | TGI [39]: > 100 µM | TGI [40]: > 100 µM | TGI [41]: > 100 µM | TGI [42]: > 82.8 µM | TGI [43]: > 51.6 µM | TGI [44]: > 100 µM | TGI [45]: > 100 µM | TGI [46]: > 100 µM | TGI [47]: > 100 µM | TGI [48]: > 95.1 µM | TGI [49]: > 100 µM | TGI [50]: > 100 µM | TGI [51]: > 72.4 µM | TGI [52]: > 100 µM | TGI [53]: 98.6 µM | TGI [54]: > 100 µM | TGI [55]: > 100 µM | TGI [56]: > 100 µM | TGI [57]: > 79.4 µM | TGI [58]: > 66.5 µM

COC(=O)/N=[N+](\[O-])C(c1ccc(Cl)cc1)c1ccc(Cl)cc1
TGI [1]: 96.5 µM | TGI [2]: > 100 µM | TGI [3]: > 100 µM | TGI [5]: > 100 µM | TGI [6]: 34.5 µM | TGI [7]: > 100 µM | TGI [8]: 59.1 µM | TGI [9]: > 100 µM | TGI [10]: > 100 µM | TGI [11]: > 100 µM | TGI [12]: 95.3 µM | TGI [13]: > 100 µM | TGI [14]: 97.3 µM | TGI [17]: > 100 µM | TGI [18]: > 100 µM | TGI [19]: > 100 µM | TGI [20]: > 100 µM | TGI [21]: > 100 µM | TGI [22]: 43.6 µM | TGI [23]: > 100 µM | TGI [59]: > 100 µM | TGI [24]: > 100 µM | TGI [25]: 77.1 µM | TGI [26]: > 100 µM | TGI [27]: > 100 µM | TGI [28]: > 100 µM | TGI [29]: 89.6 µM | TGI [30]: > 100 µM | TGI [31]: > 100 µM | TGI [32]: > 100 µM | TGI [33]: > 100 µM | TGI [34]: > 100 µM | TGI [35]: > 100 µM | TGI [36]: > 100 µM | TGI [37]: > 100 µM | TGI [38]: > 100 µM | TGI [39]: 67.3 µM | TGI [40]: 84.1 µM | TGI [41]: > 100 µM | TGI [43]: > 100 µM | TGI [44]: > 100 µM | TGI [45]: > 100 µM | TGI [46]: 78.6 µM | TGI [47]: > 100 µM | TGI [48]: > 100 µM | TGI [49]: > 100 µM | TGI [50]: > 100 µM | TGI [51]: > 100 µM | TGI [52]: > 100 µM | TGI [53]: 91.9 µM | TGI [54]: > 100 µM | TGI [55]: > 100 µM | TGI [56]: > 100 µM | TGI [57]: > 100 µM | TGI [58]: 51.2 µM
